Results: US20140309295A1, “ANTIEPILEPTIC, HYPOCHOLESTEROLEMIC AND NEUROPROTECTIVE COMPOUND” (NEURON BIOPHARMA, S.A., priority 2009, published 2014)

Tests used:
[1] = tested on: human neuroblastoma SK-N-MC cells; test: Protection against neuronal death induced by oxidative stress (xanthine/xanthine oxidase), WST-1; type: cell-based
Description: (§1) The assay was performed on human neuroblastoma SK-N-MC cells in culture from the American Type Culture Collection (ATCC), in all cases strict rules of sterility were followed and the manipulation was performed in class II biological safety cabinets following European standard EN 12469. The cells were maintained in the following culture medium: Minimum Essential Medium Eagle (MEM) supplemented with 1 mM sodium pyruvate, 2 mM L-glutamine, 0.1 mM non-essential amino acids, 0.05 mg/ml gentamicin and 10% fetal bovine serum.
The inhibition caused by compound NST0037 of cell death caused by treatment with xanthine/xanthine oxidase which generates oxidative damage (causes free radicals such as hydrogen peroxide, superoxide anion, hydroxyl radical), which triggers cell death, was analyzed. These cells, not exceeding 15 passages, were seeded on 96-well plates treated for adherent cells with a cell concentration of 5×10^4 cells/well; 3 wells of the plate were seeded for each condition of the assay.
After 24 hours of cell incubation at 37° C. and 5% CO2, the cell treatments were performed with 100 μl of total volume for the following conditions: • Control: culture medium (medium) • Xanthine/xanthine oxidase (XXO): medium plus 10 μM xanthine/60 mU/mL xanthine oxidase, causing the death of 50% of the cells. • XXO plus NST0037: medium plus XXO (10 μM/60 mU/mL) plus NST0037 at 1, 4, 10, 20, 40 or 100 μM.
The cells were incubated (at 37° C. and 5% CO2) with these treatments for 22 hours, after which time the WST-1 reagent (Roche) was added. The Test WST-1 is based on the measurement of metabolic activity. Cell damage causes the loss of the ability of cells to obtain the energy necessary to maintain their metabolic functions and cell growth, therefore the metabolically active (live) cells reduce tetrazolium salt to formazan by means of the succinate-tetrazolium reductase system (of the mitochondrial respiratory chain). The formazan which is formed can be detected colorimetrically since it has an absorbance of 440 nm. The reading was taken in a plate reader at 440 nm 2 hours after adding the reagent.
The assay was performed on human neuroblastoma SK-N-MC cells in culture from the American Type Culture Collection (ATCC), in all cases strict rules of sterility were followed and the manipulation was performed in class II biological safety cabinets following European standard EN 12469. […]
The effect of mevalonate on the protection caused by compound NST0037 against cell death caused by the treatment with xanthine/xanthine oxidase generating oxidative damage and cell death was analyzed. […]

[2] = tested on: caspase 3/7; test: Inhibition of camptothecin-induced activation of caspase 3/7 in SK-N-MC cells; type: cell-based, human; details: 100 μM mevalonate with NST0037 pretreatment
Description: The assay was performed on human neuroblastoma SK-N-MC cells in culture from the American Type Culture Collection (ATCC), in all cases strict rules of sterility were followed and the manipulation was performed in class II biological safety cabinets following European standard EN 12469. The cells were maintained in the following culture medium: Minimum Essential Medium Eagle (MEM) supplemented with 1 mM sodium pyruvate, 2 mM L-glutamine, 0.1 mM non-essential amino acids, 0.05 mg/ml gentamicin and 10% fetal bovine serum. The induction of apoptosis on the cells in culture was performed by means of incubation with camptothecin (CPT), which triggers cell apoptosis activation. The apoptosis was determined by means of the measurement of the activation of effector caspases, caspase 3 or caspase 7, for which a kit for the fluorometric detection of active caspase 3/7 (Apo-ONE® Homogeneous Caspase-3/7, Promega) was used. The active caspase 3 or 7 of the cells cause the rupture of a substrate, which leads to fluorescence emission, which is read by means of a fluorometer. The effect of the pretreatment of compound NST0037 at 10 and 40 μM on the activation of caspase 3/7 caused by 50 μM of camptothecin (CPT) in the SK-N-MC cells was thus analyzed. These cells, not exceeding 15 passages, were seeded on 96-well plates treated for adherent cells with a cell concentration of 5×10^4 cells/well, 3 wells of the plate were seeded for each condition of the assay. After 24 hours of cell incubation at 37° C. and 5% CO2, the pretreatment with NST0037 at 10 and 40 μM was performed. […] On the following day, fluorescence was measured (499/521 nm, […]).

[3] = tested on: human neuroblastoma SK-N-MC cells; test: Inhibition of camptothecin-induced apoptosis by flow cytometry (sub-G1); type: cell-based; details: pretreatment 40 μM NST0037 with 100 μM mevalonate
Description: as §1
The inhibition caused by compound NST0037 against apoptosis (programmed cell death) caused by treatment with camptothecin which inhibits the enzyme Topoisomerase I, which prevents DNA duplication and triggers apoptotic cell death, was analyzed. These cells, not exceeding 15 passages, were seeded on 6-well plates treated for adherent cells with a cell concentration of 8×10^5 cells/well and 7×10^5 cells/well for the assay with pretreatment; 2 wells of the plate were seeded for each condition of the assay.
After 24 hours of cell incubation at 37° C. and 5% CO2, the cell treatments were performed with 2 ml of total volume for the following conditions: • Control: culture medium (medium) • Camptothecin: medium plus camptothecin 50 μM. • Camptothecin plus Z-VAD-fmk: medium plus 50 μM camptothecin plus 50 μM Z-VAD-fmk, as positive inhibition control. • Camptothecin plus NST0037: medium plus 50 μM camptothecin plus NST0037 at 10, 40 or 100 μM.
In the assay with pretreatment, the cells were previously treated with 40 μM of NST0037, 100 μM of mevalonate or both together for 24 hours and then they were treated with 50 μM camptothecin, the rest of the procedure was similar to the assay without pretreatment.
The cells were incubated (at 37° C. and 5% CO2) with these treatments for 6 hours, after which time they were collected along with their culture medium and centrifuged at 300×g for 5 minutes. The medium was removed, a washing was performed with PBS and the cells were fixed for 2 minutes with 500 μl of 70% ethanol at −20° C. Once fixed, they were centrifuged at 400×g for 5 minutes, washed with PBS and 0.05 mg/ml propidium iodide, diluted in cycling buffer (0.1% sodium citrate, 0.3% Nonidet P-40 and 0.02 mg/ml RNase) were added and they were incubated for 1 hour at 37° C. After this time they were analyzed by flow cytometry, comparing the fluorescence of propidium iodide against the amount of DNA. The percentage of apoptosis was measured on the sub-G1 region of each of the conditions.

CC(O)(CCO)CC(=O)O (stereo not shown) [mevalonate, reference compound]
effect of mevalonate on protection by NST0037 against death by XXO ([1]; 40 μM NST0037 plus mevalonate at 10, 40 and 100 μM): inhibited | protection by mevalonate alone against death by XXO ([1]; mevalonate at 10, 40 or 100 μM): does not protect against death by XXO | effect of mevalonate on inhibition of caspase 3/7 by NST0037 [2]: reverted this inhibition | effect of mevalonate on the protection exerted by NST0037 against apoptosis [3]: partially inhibited
